{"source": "the supplement of paper PMC11208160"}
{"assay": "recombinant barcode read abundance after kanamycin selection (control-corrected) (log10(CPM+1)); higher = more efficient recombination; sequences stand for … in AGTGCAGAGAAAATCGGCCAGTTTTCTCTGCCTGCAGTCCGCATGCCGT…AGATTTATGCAGCGGACTGCCTTTCTCCCAAAGTGATAAACCGGACAGTATCATGGACCGGTTTTCCCGGTAATCCGTATTTGCAAGGTTGGTTTCACT; site = the 11-nt target", "method": "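Pooled E. coli target-specificity screen for the IS621 bridge recombinase. Each library plasmid pairs an 11-nt target (CT core) with a bridge RNA whose target-binding loop (9-nt LTG + 4-nt RTG) is reprogrammed; the rest of the 177-nt WT IS621 bridge RNA scaffold is fixed. The plasmid is co-electroporated with a WT donor plasmid; recombinase is induced with 0.1 mM IPTG and recombinants are selected on kanamycin. Recombinant barcodes are sequenced, converted to CPM, averaged over two biological replicates and corrected by the unselected control CPM. Molecule = full bridge RNA written as DNA: LTG = specificity nt 1-9, RTG = reverse complement of specificity nt 8-11, in the WT scaffold.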"}
{"sequence": "AAAACTACTTGGGTTCTAACCTGTTGCCA (site AAAACTACTTG)", "recombinant barcode read abundance (log10)": 0.2}
{"sequence": "AAAACTACTTGGGTTCTAACCTGTTGCCA (site AATGCTACTTG)", "recombinant barcode read abundance (log10)": 0.15}
{"sequence": "AAAAGCCCTTGGGTTCTAACCTGTTGCCT (site AAAAGCCCTAG)", "recombinant barcode read abundance (log10)": 0.77}
{"sequence": "AAAAGCCCTTGGGTTCTAACCTGTTGCCT (site ACAAGCCCTAG)", "recombinant barcode read abundance (log10)": 0.154}
{"sequence": "AAAAGCCCTTGGGTTCTAACCTGTTGCCT (site AGAAGCCCTAG)", "recombinant barcode read abundance (log10)": 0.0771}
{"sequence": "AAAAGCCCTTGGGTTCTAACCTGTTGCCT (site ATAAGCCCTAG)", "recombinant barcode read abundance (log10)": 0.357}
{"sequence": "AAACGCTCTTGGGTTCTAACCTGTTGCCT (site AAACGCTCTAG)", "recombinant barcode read abundance (log10)": 1.75}
{"sequence": "AAACGCTCTTGGGTTCTAACCTGTTGCCT (site TAACGCTCTAG)", "recombinant barcode read abundance (log10)": 0.446}
{"sequence": "AAACTAACTTGGGTTCTAACCTGTTGCCT (site AAACTAACTAG)", "recombinant barcode read abundance (log10)": 1.31}
{"sequence": "AAACTAACTTGGGTTCTAACCTGTTGCCT (site ACACTAACTAG)", "recombinant barcode read abundance (log10)": 0.167}
{"sequence": "AAACTAACTTGGGTTCTAACCTGTTGCCT (site AGACTAACTAG)", "recombinant barcode read abundance (log10)": 0.0602}
{"sequence": "AAACTAACTTGGGTTCTAACCTGTTGCCT (site ATACTAACTAG)", "recombinant barcode read abundance (log10)": 0.073}
{"sequence": "AAACTTACTTGGGTTCTAACCTGTTGCCT (site AAACTTACTAG)", "recombinant barcode read abundance (log10)": 0.721}
{"sequence": "AAACTTACTTGGGTTCTAACCTGTTGCCT (site AGATTTACTAG)", "recombinant barcode read abundance (log10)": 0.0102}
{"sequence": "AAAGCTCCTTGGGTTCTAACCTGTTGCTT (site AAAGCTACTAG)", "recombinant barcode read abundance (log10)": 0.0734}
{"sequence": "AAAGCTCCTTGGGTTCTAACCTGTTGCTT (site AAAGCTCCTAA)", "recombinant barcode read abundance (log10)": 0.318}
{"sequence": "AAAGGGACTTGGGTTCTAACCTGTTGCCT (site AAAGGGACTAG)", "recombinant barcode read abundance (log10)": 2.08}
{"sequence": "AAAGGGACTTGGGTTCTAACCTGTTGCCT (site AAGGAGACTAG)", "recombinant barcode read abundance (log10)": 0.191}
{"sequence": "AAATCTGCTTGGGTTCTAACCTGTTGCCT (site AAATCTGCTAG)", "recombinant barcode read abundance (log10)": 0.122}
{"sequence": "AAATCTGCTTGGGTTCTAACCTGTTGCCT (site GGTGGGACTGT)", "recombinant barcode read abundance (log10)": 0.229}
{"sequence": "AACAAGCCTTGGGTTCTAACCTGTTGCTG (site AACAAGCCTCA)", "recombinant barcode read abundance (log10)": 0.896}
{"sequence": "AACAAGCCTTGGGTTCTAACCTGTTGCTG (site AACATGCCTAA)", "recombinant barcode read abundance (log10)": 0.0487}
{"sequence": "AACACGACTTGGGTTCTAACCTGTTGCTC (site AACACGACTGA)", "recombinant barcode read abundance (log10)": 0.171}
{"sequence": "AACACGACTTGGGTTCTAACCTGTTGCTC (site CCATATGCTAG)", "recombinant barcode read abundance (log10)": 0.235}
{"sequence": "AACAGGCCTTGGGTTCTAACCTGTTGCCT (site AACAGGCCTAG)", "recombinant barcode read abundance (log10)": 0.0525}
{"sequence": "AACAGGCCTTGGGTTCTAACCTGTTGCCT (site TGTGACACTTT)", "recombinant barcode read abundance (log10)": 0}
{"sequence": "AACATACCTTGGGTTCTAACCTGTTGCCT (site AACATACCTAG)", "recombinant barcode read abundance (log10)": 0.737}
{"sequence": "AACATACCTTGGGTTCTAACCTGTTGCCT (site ATCATTCCTAG)", "recombinant barcode read abundance (log10)": 0.564}
{"sequence": "AACATCACTTGGGTTCTAACCTGTTGCCG (site AACATCACTCG)", "recombinant barcode read abundance (log10)": 1.08}
{"sequence": "AACATCACTTGGGTTCTAACCTGTTGCCG (site AGCATCACTAG)", "recombinant barcode read abundance (log10)": 0}
{"sequence": "AACCACTCTTGGGTTCTAACCTGTTGCCT (site AACCACTCTAG)", "recombinant barcode read abundance (log10)": 2.42}
{"sequence": "AACCACTCTTGGGTTCTAACCTGTTGCCT (site CACCACTCTAG)", "recombinant barcode read abundance (log10)": 0.942}
{"sequence": "AACCACTCTTGGGTTCTAACCTGTTGCCT (site GACCACTCTAG)", "recombinant barcode read abundance (log10)": 0.266}
{"sequence": "AACCACTCTTGGGTTCTAACCTGTTGCCT (site TACCACTCTAG)", "recombinant barcode read abundance (log10)": 1.46}
{"sequence": "AACCAGTCTTGGGTTCTAACCTGTTGCCG (site AACCAGTCTCG)", "recombinant barcode read abundance (log10)": 0.898}
{"sequence": "AACCAGTCTTGGGTTCTAACCTGTTGCCG (site ACCCAGTCTTG)", "recombinant barcode read abundance (log10)": 0.033}
{"sequence": "AACCCACCTTGGGTTCTAACCTGTTGCCT (site AACCCACCTAG)", "recombinant barcode read abundance (log10)": 1.97}
{"sequence": "AACCCACCTTGGGTTCTAACCTGTTGCCT (site CACCCACCTAG)", "recombinant barcode read abundance (log10)": 0.56}
{"sequence": "AACCCACCTTGGGTTCTAACCTGTTGCCT (site GACCCACCTAG)", "recombinant barcode read abundance (log10)": 0.0506}
{"sequence": "AACCCACCTTGGGTTCTAACCTGTTGCCT (site TACCCACCTAG)", "recombinant barcode read abundance (log10)": 0.997}
{"sequence": "AACGCCACTTGGGTTCTAACCTGTTGCCT (site AACGCCACTAG)", "recombinant barcode read abundance (log10)": 0.0293}
{"sequence": "AACGCCACTTGGGTTCTAACCTGTTGCCT (site GACGCCACTAG)", "recombinant barcode read abundance (log10)": 0.0328}
{"sequence": "AACGGAGCTTGGGTTCTAACCTGTTGCGG (site AACGGAGCTCC)", "recombinant barcode read abundance (log10)": 1.78}
{"sequence": "AACGGAGCTTGGGTTCTAACCTGTTGCGG (site TGCGGAGCTCC)", "recombinant barcode read abundance (log10)": 0.699}
{"sequence": "AACGTACCTTGGGTTCTAACCTGTTGCAG (site AACGTACCTCT)", "recombinant barcode read abundance (log10)": 1.28}
{"sequence": "AACGTACCTTGGGTTCTAACCTGTTGCAG (site GTGAAGACTAA)", "recombinant barcode read abundance (log10)": 0.0773}
{"sequence": "AACTAATCTTGGGTTCTAACCTGTTGCCT (site AACTAATCTAG)", "recombinant barcode read abundance (log10)": 0.327}
{"sequence": "AACTAATCTTGGGTTCTAACCTGTTGCCT (site AACTCATCTAG)", "recombinant barcode read abundance (log10)": 0.0864}
{"sequence": "AACTAATCTTGGGTTCTAACCTGTTGCCT (site AACTGATCTAG)", "recombinant barcode read abundance (log10)": 0.0845}
{"sequence": "AACTAATCTTGGGTTCTAACCTGTTGCCT (site AACTTATCTAG)", "recombinant barcode read abundance (log10)": 0.0117}
{"sequence": "AACTAGTCTTGGGTTCTAACCTGTTGCTA (site AACCAGTCTTC)", "recombinant barcode read abundance (log10)": 0.0577}
{"sequence": "AACTAGTCTTGGGTTCTAACCTGTTGCTA (site AACTAGTCTTA)", "recombinant barcode read abundance (log10)": 1.27}
{"sequence": "AACTATTCTTGGGTTCTAACCTGTTGCCT (site AACTATTCTAG)", "recombinant barcode read abundance (log10)": 0.374}
{"sequence": "AACTATTCTTGGGTTCTAACCTGTTGCCT (site ATGTATTCTAG)", "recombinant barcode read abundance (log10)": 0.114}
{"sequence": "AACTCATCTTGGGTTCTAACCTGTTGCCT (site AACTAATCTAG)", "recombinant barcode read abundance (log10)": 0.0366}
{"sequence": "AACTCATCTTGGGTTCTAACCTGTTGCCT (site AACTCATCTAG)", "recombinant barcode read abundance (log10)": 0.378}
{"sequence": "AACTCATCTTGGGTTCTAACCTGTTGCCT (site AACTGATCTAG)", "recombinant barcode read abundance (log10)": 0.149}
{"sequence": "AACTCATCTTGGGTTCTAACCTGTTGCCT (site AACTTATCTAG)", "recombinant barcode read abundance (log10)": 0.0223}
{"sequence": "AACTTATCTTGGGTTCTAACCTGTTGCCT (site AACTAATCTAG)", "recombinant barcode read abundance (log10)": 1.02}
{"sequence": "AACTTATCTTGGGTTCTAACCTGTTGCCT (site AACTCATCTAG)", "recombinant barcode read abundance (log10)": 0.0843}
{"sequence": "AACTTATCTTGGGTTCTAACCTGTTGCCT (site AACTGATCTAG)", "recombinant barcode read abundance (log10)": 0.0896}
{"sequence": "AACTTATCTTGGGTTCTAACCTGTTGCCT (site AACTTATCTAG)", "recombinant barcode read abundance (log10)": 0.812}
{"sequence": "AACTTCACTTGGGTTCTAACCTGTTGCCT (site AACTTCACTAG)", "recombinant barcode read abundance (log10)": 1.12}
{"sequence": "AACTTCACTTGGGTTCTAACCTGTTGCCT (site AACTTCCCTAG)", "recombinant barcode read abundance (log10)": 0.013}
{"sequence": "AACTTCACTTGGGTTCTAACCTGTTGCCT (site AACTTCGCTAG)", "recombinant barcode read abundance (log10)": 0.364}
{"sequence": "AACTTCACTTGGGTTCTAACCTGTTGCCT (site AACTTCTCTAG)", "recombinant barcode read abundance (log10)": 0.0193}
{"sequence": "AACTTTCCTTGGGTTCTAACCTGTTGCAT (site AACTATCCTAT)", "recombinant barcode read abundance (log10)": 0.0732}
{"sequence": "AACTTTCCTTGGGTTCTAACCTGTTGCAT (site AACTCTCCTAT)", "recombinant barcode read abundance (log10)": 0.465}
{"assay": "recombinant UMI read abundance after kanamycin selection (control-corrected) (log10(CPM+1)); higher = more efficient recombination; extreme values may be limits of the assay; sequences stand for … in AGTGCAGAGAAAATCGGCCAGTTTTCTCTGCCTGCAGTCCGCATGCCGTGGGACCCCTTGGGTTCTAACCTGTTGCCTAGATTTATGCAGCGGACTGCCTTTCTCCCAAAGTGATAAACCGG…AGGTTGGTTTCACT; site = the 11-nt donor", "summary_of_the_method": "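Values, expressed as log10(CPM+1), derive from recombinant UMI counts converted to CPM, averaged across replicates and scaled by control-derived factors. Plating was with IPTG (0.07 mM) plus kanamycin or unselected, two replicates each. The screen pooled donor and donor-binding-loop pairs for the IS621 bridge recombinase in Escherichia coli.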"}
{"sequence": "TTTGGCGCATGGACCGGTTTTCCCGGTAATCCGTATTTGAG (site TTTGGCGCTCT)", "recombinant UMI read abundance (log10)": 0.115}
{"sequence": "TTTGGGGCATGGACCGGTTTTCCCGGTAATCCGTATTTGAC (site TTTGGGGCTGT)", "recombinant UMI read abundance (log10)": 1.57}
{"sequence": "TTTGTTACATGGACCGGTTTTCCCGGTAATCCGTATTTGCC (site TTTGTTACTGG)", "recombinant UMI read abundance (log10)": 0.44}
{"sequence": "TTTTTGGCATGGACCGGTTTTCCCGGTAATCCGTATTTGTG (site TATTTGGCTCA)", "recombinant UMI read abundance (log10)": 0.0105}
{"sequence": "TTTTTGGCATGGACCGGTTTTCCCGGTAATCCGTATTTGTG (site TCTTTGGCTCA)", "recombinant UMI read abundance (log10)": 0.0102}
{"sequence": "TTTTTGGCATGGACCGGTTTTCCCGGTAATCCGTATTTGTG (site TGTTTGGCTCA)", "recombinant UMI read abundance (log10)": 0.0296}
{"sequence": "TTTTTGGCATGGACCGGTTTTCCCGGTAATCCGTATTTGTG (site TTTTTGGCTCA)", "recombinant UMI read abundance (log10)": 0.00438}
